Assay results reported in publication PMC12430443, “Discovery of Novel Benzamide-Based Sigma-1 Receptor Agonists with Enhanced Selectivity and Safety” (Molecules, 2025).

Experiments:
histamine H1 receptor = histamine H1 receptor (Homo sapiens, UniProt P35367); test: Off-target panel, aequorin functional assay; assay type: cell-based; settings: 10 µM
Method: (§1) Among the synthesized compounds, four derivatives were selected based on their affinity and selectivity profiles. […] The remaining compounds (2, 3, 6, and 7) were assessed for their agonist and antagonist activities across a panel of 58 receptors relevant to CNS disorders, including serotonin, adenosine, adrenergic, cannabinoid, dopamine, histamine, and muscarinic receptors. These assays were conducted at a concentration of 10 µM, in duplicate, utilizing aequorin [19], cAMP HTRF™ [20], and GTPγS binding assays, as detailed in Table 2. […] Specifically, compound 6 antagonized four receptors (5-HT2A, 5-HT2C, α1a, H1), while compound 7 was active against five receptors (5-HT2A, 5-HT3, α1a, H1, M1).
(§2) Rapidly, the tests were performed by Euroscreen (https://euroscreenfast.com/) with recombinant human G-coupled receptor-expressing cell lines using aequorin functional assays for serotonin 5-HT2A, 5-HT2B, 5-HT2C, 5-HT3, and 5-HT5A, adrenergic α1a and α1b, angiotensin AT1, cholesistokinin CCFK1, endothelin ETA, histamine H1, muscarinic M1 and M3, neurokinin NK1 and NK2, vasopressin V1a, and vasoactive intestinal peptide VPAC1 receptor analysis. Then, cAMP HTRF^TM assays were used to analyze serotonin 5-HT1A, 5-HT4E, 5-HT6, and 5-HT7, adenosine A1, A2A, and A3, adrenergic β1 and β2, cannabinoid CB1, dopamine D1, histamine H2, and neuropeptide Y NPY receptors. GTPγS^35 assays were used to analyze serotonin 5-HT1B, adrenergic α2a and α2b, dopamine D2, muscarinic M2 and M4, opioid δ, κ and µ, and somatostatine SST4 receptors.
(§3) Agonist and antagonist activities of the test compound are expressed as the percentage of the activity of the reference agonist at its EC100 concentration or the percentage of inhibition of the reference agonist activity at its EC80 concentration, respectively.
(§4) For the aequorin assays, different cell lines co-expressing the receptors were grown in specific culture media and incubated for 4 h with coelenterazine h. For agonist testing, cell suspensions were mixed with test or reference agonists in a 96-well plate. For antagonist testing, the reference agonist at its EC80 (final concentration) was injected to the mix the containing cells and the tested compound. The resulting emission of light was recorded using the Hamamatsu Functional Drug Screening System 6000 [19].

[1] = target: serotonin 5-HT2A receptor (Homo sapiens, UniProt P28223); test: Off-target panel, aequorin functional assay; assay type: cell-based; settings: 10 µM, duplicate; % inhibition of reference agonist activity
Chain of serotonin 5-HT2A receptor (P28223 whole entry): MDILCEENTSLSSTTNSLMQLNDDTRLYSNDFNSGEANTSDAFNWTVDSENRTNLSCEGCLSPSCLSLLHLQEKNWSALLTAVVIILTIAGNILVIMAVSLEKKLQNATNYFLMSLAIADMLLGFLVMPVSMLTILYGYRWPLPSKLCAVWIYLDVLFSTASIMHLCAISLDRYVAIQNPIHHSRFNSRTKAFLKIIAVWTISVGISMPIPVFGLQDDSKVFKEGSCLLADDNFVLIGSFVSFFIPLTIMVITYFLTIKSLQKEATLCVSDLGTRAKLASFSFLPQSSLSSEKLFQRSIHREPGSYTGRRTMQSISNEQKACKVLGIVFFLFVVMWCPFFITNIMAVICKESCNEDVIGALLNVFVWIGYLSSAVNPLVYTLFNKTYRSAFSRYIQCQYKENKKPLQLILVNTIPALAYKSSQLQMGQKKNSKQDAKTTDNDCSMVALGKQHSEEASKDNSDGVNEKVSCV
Method: as §1, §2, §3, §4

S1R = target: T1, S1R (Homo sapiens, UniProt Q99720); test: S1R competitive radioligand binding, [3H](+)-pentazocine, Jurkat cell membranes; settings: for IC50: [3H]-(+)-pentazocine displacement, n = 2; for Ki (S2R)/ Ki (S1R): selectivity ratio S2R/S1R
T1 construct: For the S1R assay, Jurkat cell membranes (10–20 μg protein/tube) were incubated at 37 °C for 2 h; host or cells: Jurkat cell membranes
T1 sequence (Q99720 whole entry): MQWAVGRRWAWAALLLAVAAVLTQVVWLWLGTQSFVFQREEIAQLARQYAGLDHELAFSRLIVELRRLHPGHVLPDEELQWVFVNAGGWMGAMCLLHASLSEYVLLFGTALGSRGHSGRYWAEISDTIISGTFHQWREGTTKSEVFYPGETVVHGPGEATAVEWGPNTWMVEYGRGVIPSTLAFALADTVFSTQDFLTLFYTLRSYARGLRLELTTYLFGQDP
From the text: (§5) S1R and S2R affinities were classically evaluated through competitive binding assays using radioligands, following the protocol described by Ganapathy et al.. The selective radioligand [^3H] (+)-pentazocine was employed as the classic prototypical ligand, selectively binding to the orthosteric S1R-binding sites. […] Jurkat cell membranes served as the receptor source in both assays. The equilibrium dissociation constants (Ki) for S1R and S2R were derived from the IC50 values of each compound, and selectivity ratios (S2R/S1R) were subsequently calculated (Table 1, Figures S2 and S3).
(§6) Binding assays were performed by Eurofins Cerep (Poitiers, France) according to the protocol of Ganapathy. […] For the S2R assay, Jurkat cell membranes (10–20 μg protein/tube) were incubated at room temperature for 1 h in the same buffer with [^3H]-DTG (25 nM) in the presence of (+)-pentazocine (1 μM) to saturate S1R, along with a range of test compound concentrations. Bound radioactivity was quantified by liquid scintillation counting. Nonspecific binding was determined under identical conditions in the presence of 10 μM unlabeled haloperidol. The IC50 values (concentration causing a half-maximal inhibition of control-specific binding) and Hill coefficients (nH) were determined by non-linear regression analysis of the competition curves generated with mean replicate values using Hill equation curve-fitting. This analysis was performed using software developed at Cerep (Hill software) and validated by comparison with data generated by the commercial software SigmaPlot ®4.0 for Windows® (©1997 by SPSS Inc.). Inhibition constants (Ki) were calculated from IC50 values using the method of Cheng and Prusoff.

S2R = target: T2, S2R (Homo sapiens, UniProt Q5BJF2); test: S2R competitive radioligand binding, [3H]-DTG with excess (+)-pentazocine, Jurkat cell membranes; settings: [3H]-DTG displacement with excess (+)-pentazocine, n = 2
T2 construct: For the S2R assay, Jurkat cell membranes (10–20 μg protein/tube) were incubated at room temperature for 1 h; host or cells: Jurkat cell membranes
T2 sequence (Q5BJF2 whole entry): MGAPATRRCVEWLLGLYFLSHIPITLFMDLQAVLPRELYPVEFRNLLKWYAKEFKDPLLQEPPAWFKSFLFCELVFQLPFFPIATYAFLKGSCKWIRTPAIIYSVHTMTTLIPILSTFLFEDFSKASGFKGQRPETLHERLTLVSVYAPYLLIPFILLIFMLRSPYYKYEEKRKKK
From the text: as §5, §6

adrenergic α1b receptor = adrenergic α1b receptor (Homo sapiens, UniProt P35368); test: Off-target panel, aequorin functional assay; assay type: cell-based; settings: 10 µM, duplicate; % inhibition of reference agonist activity
Chain of adrenergic α1b receptor (P35368 whole entry): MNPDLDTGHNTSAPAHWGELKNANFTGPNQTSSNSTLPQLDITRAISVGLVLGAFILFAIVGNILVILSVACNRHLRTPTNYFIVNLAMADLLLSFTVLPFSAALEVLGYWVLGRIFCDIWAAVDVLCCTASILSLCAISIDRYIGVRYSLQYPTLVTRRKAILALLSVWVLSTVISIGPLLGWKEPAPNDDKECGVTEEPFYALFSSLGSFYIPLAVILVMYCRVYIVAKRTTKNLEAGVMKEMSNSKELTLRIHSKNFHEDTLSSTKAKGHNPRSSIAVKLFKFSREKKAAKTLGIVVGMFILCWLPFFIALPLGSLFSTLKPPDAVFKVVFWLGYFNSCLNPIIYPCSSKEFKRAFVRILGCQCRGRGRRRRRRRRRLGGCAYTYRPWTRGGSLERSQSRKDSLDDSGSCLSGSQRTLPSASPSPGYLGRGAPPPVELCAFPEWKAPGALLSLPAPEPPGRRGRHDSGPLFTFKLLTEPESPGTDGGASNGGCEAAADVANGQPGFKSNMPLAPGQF
Method: as §1, §2, §3, §4

adrenergic α1a receptor = adrenergic α1a receptor (Homo sapiens, UniProt P35348); test: Off-target panel, aequorin functional assay; assay type: cell-based; settings: 10 µM, duplicate; % inhibition of reference agonist activity
Chain of adrenergic α1a receptor (P35348 whole entry): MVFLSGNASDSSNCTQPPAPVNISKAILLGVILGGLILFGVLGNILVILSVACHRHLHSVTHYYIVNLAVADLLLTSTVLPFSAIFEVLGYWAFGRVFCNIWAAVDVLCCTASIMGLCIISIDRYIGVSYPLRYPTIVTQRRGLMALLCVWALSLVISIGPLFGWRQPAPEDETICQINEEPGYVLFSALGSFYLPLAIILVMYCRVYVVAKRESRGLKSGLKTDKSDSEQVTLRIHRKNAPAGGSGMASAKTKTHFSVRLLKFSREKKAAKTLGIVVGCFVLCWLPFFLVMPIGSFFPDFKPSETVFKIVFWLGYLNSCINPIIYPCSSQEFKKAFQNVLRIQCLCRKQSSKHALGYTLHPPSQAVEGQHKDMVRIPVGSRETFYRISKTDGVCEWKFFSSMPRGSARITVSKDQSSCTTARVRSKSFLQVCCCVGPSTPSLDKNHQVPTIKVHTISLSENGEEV
Method: as §1, §2, §3, §4

serotonin 5-HT3 receptor = serotonin 5-HT3 receptor (Homo sapiens, UniProt P46098); test: Off-target panel, aequorin functional assay; assay type: cell-based; settings: 10 µM, duplicate; % inhibition of reference agonist activity
Chain of serotonin 5-HT3 receptor (P46098 24-478): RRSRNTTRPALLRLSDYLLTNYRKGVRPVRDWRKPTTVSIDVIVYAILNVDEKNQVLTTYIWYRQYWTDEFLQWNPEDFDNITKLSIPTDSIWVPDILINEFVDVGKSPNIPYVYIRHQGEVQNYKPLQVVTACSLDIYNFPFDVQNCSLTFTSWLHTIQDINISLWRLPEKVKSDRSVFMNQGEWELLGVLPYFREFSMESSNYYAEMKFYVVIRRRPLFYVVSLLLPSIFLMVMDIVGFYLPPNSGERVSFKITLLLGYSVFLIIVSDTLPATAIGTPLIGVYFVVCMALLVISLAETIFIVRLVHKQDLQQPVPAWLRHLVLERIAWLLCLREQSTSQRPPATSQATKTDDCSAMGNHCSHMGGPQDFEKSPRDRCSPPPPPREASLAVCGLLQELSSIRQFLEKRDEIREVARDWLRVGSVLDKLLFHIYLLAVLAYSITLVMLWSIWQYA
Method: as §1, §2, §3, §4

adrenergic α2a receptor = adrenergic α2a receptor (Homo sapiens, UniProt P08913); test: Off-target panel, GTPγS binding assay; assay type: biochemical; settings: 10 µM, duplicate; % inhibition of reference agonist activity
Chain of adrenergic α2a receptor (P08913 whole entry): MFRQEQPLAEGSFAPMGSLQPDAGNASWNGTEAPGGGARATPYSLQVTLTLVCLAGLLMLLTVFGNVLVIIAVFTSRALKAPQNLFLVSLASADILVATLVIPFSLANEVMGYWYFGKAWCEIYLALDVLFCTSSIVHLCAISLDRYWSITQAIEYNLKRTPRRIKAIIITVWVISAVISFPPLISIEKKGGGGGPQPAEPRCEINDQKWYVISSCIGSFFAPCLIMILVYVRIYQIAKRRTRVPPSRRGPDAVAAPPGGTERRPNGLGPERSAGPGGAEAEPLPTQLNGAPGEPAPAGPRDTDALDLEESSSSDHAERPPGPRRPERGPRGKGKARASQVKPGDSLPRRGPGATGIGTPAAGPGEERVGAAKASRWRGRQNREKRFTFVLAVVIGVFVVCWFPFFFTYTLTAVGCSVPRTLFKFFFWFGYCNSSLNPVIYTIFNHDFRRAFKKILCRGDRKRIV
Method: as §1, with “M1). […]” for “M1).”
as §3
(§7) For the GTPγS scintillation proximity assay, optimized specific conditions were determined for each receptor. […] were estimated with a PerkinElmer TopCount reader.

adrenergic α2b receptor = adrenergic α2b receptor (Homo sapiens, UniProt P18089); test: Off-target panel, GTPγS binding assay; assay type: biochemical; settings: 10 µM, duplicate; % inhibition of reference agonist activity
Chain of adrenergic α2b receptor (P18089 whole entry): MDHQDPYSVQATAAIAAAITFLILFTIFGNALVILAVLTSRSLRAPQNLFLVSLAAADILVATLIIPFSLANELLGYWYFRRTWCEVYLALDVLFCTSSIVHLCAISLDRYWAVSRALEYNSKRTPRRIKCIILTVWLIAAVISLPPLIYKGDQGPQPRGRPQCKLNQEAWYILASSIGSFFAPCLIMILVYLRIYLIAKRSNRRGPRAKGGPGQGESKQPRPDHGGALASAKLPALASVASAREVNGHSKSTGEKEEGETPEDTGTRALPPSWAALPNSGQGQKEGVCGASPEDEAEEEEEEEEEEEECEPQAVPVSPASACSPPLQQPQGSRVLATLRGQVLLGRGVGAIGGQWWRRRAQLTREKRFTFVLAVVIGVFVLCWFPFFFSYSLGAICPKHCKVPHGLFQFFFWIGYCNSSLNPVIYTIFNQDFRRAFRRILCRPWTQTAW
Method: as §1, with “M1). […]” for “M1).”
as §3, §7

D4.4 = D4.4 (Homo sapiens, UniProt P21917); test: Off-target panel of recombinant human receptors; assay type: cell-based; settings: 10 µM, duplicate; % inhibition of reference agonist activity
Chain of D4.4 (P21917 whole entry): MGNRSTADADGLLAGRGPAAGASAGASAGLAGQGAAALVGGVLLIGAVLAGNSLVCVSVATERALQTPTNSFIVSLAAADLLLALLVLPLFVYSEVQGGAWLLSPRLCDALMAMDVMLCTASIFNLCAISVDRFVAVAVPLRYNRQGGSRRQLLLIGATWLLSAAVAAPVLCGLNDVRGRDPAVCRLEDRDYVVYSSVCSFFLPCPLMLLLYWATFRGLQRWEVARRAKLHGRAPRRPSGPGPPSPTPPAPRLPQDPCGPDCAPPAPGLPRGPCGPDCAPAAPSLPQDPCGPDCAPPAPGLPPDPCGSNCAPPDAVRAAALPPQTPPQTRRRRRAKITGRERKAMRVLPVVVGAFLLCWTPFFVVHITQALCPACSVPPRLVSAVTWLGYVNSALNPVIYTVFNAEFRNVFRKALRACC
Method: as §1, §3

Chain of histamine H1 receptor (P35367 whole entry): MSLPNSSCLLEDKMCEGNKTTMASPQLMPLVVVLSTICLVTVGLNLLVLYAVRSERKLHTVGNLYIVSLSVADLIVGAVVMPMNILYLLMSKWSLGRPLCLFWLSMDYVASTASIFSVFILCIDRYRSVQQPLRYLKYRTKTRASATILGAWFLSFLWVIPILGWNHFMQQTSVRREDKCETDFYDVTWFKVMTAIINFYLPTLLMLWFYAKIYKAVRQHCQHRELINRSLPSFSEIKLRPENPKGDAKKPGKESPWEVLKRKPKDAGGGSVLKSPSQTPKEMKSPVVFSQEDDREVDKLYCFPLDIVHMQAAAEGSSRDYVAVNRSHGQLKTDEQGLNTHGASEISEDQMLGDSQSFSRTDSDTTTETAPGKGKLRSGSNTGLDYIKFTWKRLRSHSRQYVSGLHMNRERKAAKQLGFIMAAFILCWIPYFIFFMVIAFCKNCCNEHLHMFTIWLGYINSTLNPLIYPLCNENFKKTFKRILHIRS

Structure (SMILES) | H1 antagonist activity (in words) (histamine H1 receptor) | 5-HT2A [b] antagonist activity [1] | IC50 (S1R; Jurkat cell membranes) [µM] | Ki (S2R)/ Ki (S1R) (S1R) | IC50 (S2R) [µM] | α1b [b] antagonist activity (adrenergic α1b receptor) [%] | α1a [b] antagonist activity (adrenergic α1a receptor) [%] | 5-HT3 [b] antagonist activity (serotonin 5-HT3 receptor) [%] | α2a [b] antagonist activity (adrenergic α2a receptor) [%] | α2b [b] antagonist activity (adrenergic α2b receptor) [%] | D4.4 [b] antagonist activity (D4.4) [%] | Ki (S1R; [3H](+)-pentazocine, Jurkat cell membranes, mean of 2–3 independent experiments) [nM]
CN(CCC(=O)NCc1ccc(C#N)cc1)Cc1ccccc1 [Compound 6, 3-(Benzylmethylamino)-N-(4-cyanobenzyl)propanamide] | antagonized | antagonized | 0.011 | 331 | 2.4 |  |  |  |  |  |  | 
CN(CCC(=O)NCc1cccc(Cl)c1)Cc1ccccc1 [Compound 2, 3-(Benzylmethylamino)-N-(3-chlorobenzyl)propanamide] |  | 72% | 0.0012 | 317 | 0.27 | 70 | 64 | 68 | 61 | 59 | 64 | 0.6
